According to patent US20230227474A1, “COMPOSITIONS AND METHODS FOR CORRECTION OF ABERRANT SPLICING” (SKYHAWK THERAPEUTICS, INC., priority 2019, published 2023):
Where two headings read alike, the source gives them in different places.

What was measured:
mHTT protein = test: mHTT Protein Assay (2B7-MW1, MSD); assay type: cell-based, human; conditions: GM04724 (CAG 70/20) Huntington's disease patient lymphoblast cells, 48 hours, read-out: HTT Potency - Protein: EC50 mHTT (average)
Experimental: Compounds are tested on GM04724 (CAG 70/20) Huntington's disease patient lymphoblast cells at doses ranging from 10 μM to 0.6 nM. 4,500 cells/well are seeded in 384 well plates. One plate replica is carried out for parallel viability testing by CellTiter Glo (CTG). Compounds are incubated for 48 hours. mHTT protein levels are assessed by the 2B7-MW1 assay via Mesoscale Discovery (MSD) as previously reported (Macdonald et al., 2014). The antibody pair is comprised of previously characterized monoclonals (2B7 and MW1) interrogating two regions for HTT conformation and biological properties: the N17 domain and the polyQ domain (Baldo et al., 2012; Ko et., 2001). 2B7-MW1 is dependent on subject/animal specific levels of HTT at the time of treatment. 2B7-MW1 is dependent on polyQ expansion (e.g., the higher the expansion the higher the signal) and on mHTT size (e.g., a similar polyQ will give higher signal with smaller HTT size). The viability readout is carried out by CTG according to the manufacturer's instructions. The results are show in Table B-5.

SMN protein = test: SMN Protein Assay (MSD); assay type: cell-based, human; conditions: SMA patient fibroblasts (GM03813), 48 hours, read-out: SMN2 Potency- Protein: Protein FL EC50 (average)
Experimental: Compounds are tested on spinal muscular atrophy (SMA) patient fibroblasts (GM03813, Coriell) at doses ranging from 2.5 μM to 0.6 nM. 7000 cells/well are seeded in 96-well plates. Compounds are incubated for 48 hours and the cells are lysed with 100 μL of lysis buffer. 20 μL of lysate is used for SMN protein measurement by Mesoscale Discovery (MSD) assay developed by PharmOptima (Michigan). A standard curve prepared with SMN protein ranging from […] is used in each MSD plate to calculate the absolute SMN protein amount in each sample.

[1] = test system: Huntingtin (HTT) transcripts; test: Quantitative Splicing Assay (HTT); assay type: cell-based; conditions: Homo sapiens, GM04724 (CAG 70/20) Huntington's disease patient lymphoblasts, 24 h
Experimental: GM04724 (CAG 70/20) Huntington's disease patient lymphoblasts (Coriell) are plated in 96-well v-bottom plates at 50,000 cells/well. Immediately after plating, cells are dosed with compound for 24 h at concentrations ranging from 2.5 uM to 0.15 nM (0.1% DMSO). Treated cells are lysed and cDNA synthesized using the Fast Advanced Cells-to-Ct kit (Thermofisher A35378) according to the manufacturer's instructions. 2 uL of each cDNA are used in qPCR reactions to confirm the compound-induced inclusion of a cryptic exon within intron 49 of the Huntingtin (HTT) transcripts. The qPCR reactions are prepared in 384-well plates in 10 uL volume, using TaqMan™ Fast Advanced Master Mix [ThermoFisher; 4444965] with primers and probes shown in the table below. Reactions are run in a Quant Studio 6 qPCR instrument with default settings.

SMN2 = test: Quantitative Splicing Assay (SMN); assay type: cell-based; conditions: Homo sapiens, Fibroblast, SMA patient fibroblasts (GM03813), 24 h
Experimental: Spinal muscular atrophy (SMA) patient fibroblasts (GM03813, Coriell) are plated in 96-well plates at 50,000 cells/well. Immediately after plating, cells are dosed with compounds for 24 h at concentrations ranging from 2.5 μM to 0.6 nM (0.1% DMSO). Treated cells are lysed and cDNA synthesized using the Fast Advanced Cells-to-Ct kit (Thermofisher A35378) according to the manufacturer's instructions. 2 μL of each cDNA are used in qPCR reactions. The qPCR reactions are prepared in 384-well plates in 10 μL volume, using TaqMan™ Fast Advanced Master Mix (ThermoFisher; 4444965) with primers and probes shown in the table below. Reactions are run in a Quant Studio 6 qPCR instrument with default settings.

SMILES	EC50 (mHTT protein) [nM]	EC50 (SMN protein) [nM]	EC50 ([1]; qPCR HTTcryp49b (cryptic exon within intron 49), read-out: HTT Potency - Splicing: E49b EC50 (average)) [nM]	EC50 ([1]; qPCR HTTex49_50, read-out: HTT Potency - Splicing: E49-50 EC50 (average)) [nM]	EC50 (SMN2; qPCR SMN FL, read-out: SMN2 Potency- Splicing: Splicing FL EC50 (average)) [nM]	IC50 (SMN2; qPCR SMN Δ7, read-out: SMN2 Potency- Splicing: Splicing D7 IC50 (average)) [nM]
Oc1cc(-c2cn[nH]c2)ccc1-c1cc2c(nn1)N([C@@H]1C[C@H]3CC[C@@H](C1)N3)CCO2 [Compound 1, 2-(8-((1R,3s,5S)-8-azabicyclo[3.2.1]octan-3-yl)-7,8-dihydro-6H-pyridazino[4,3-b][1,4]oxazin-3-yl)-5-(1H-pyrazol-4-yl)phenol]	501 to 10000	501 to 10000	–	–	–	–
Oc1cc(-n2ccnc2)ccc1-c1cc2c(nn1)N([C@@H]1C[C@H]3CC[C@@H](C1)N3)CCO2 [Compound 3, 2-(8-((1R,3s,5S)-8-azabicyclo[3.2.1]octan-3-yl)-7,8-dihydro-6H-pyridazino[4,3-b][1,4]oxazin-3-yl)-5-(1H-imidazol-1-yl)phenol]	501 to 10000	501 to 10000	–	–	–	–
Cn1cc(-c2ccc(-c3cc4c(nn3)N([C@@H]3C[C@H]5CC[C@@H](C3)N5)CCC4)c(O)c2)cn1 [Compound 2, 2-(8-((1R,3s,5S)-8-azabicyclo[3.2.1]octan-3-yl)-5,6,7,8-tetrahydropyrido[2,3-c]pyridazin-3-yl)-5-(1-methyl-1H-pyrazol-4-yl)phenol]	0.01 to 15	0.01 to 15	0.01 to 15	0.01 to 15	16 to 50	0.01 to 15
